Measurements reported in ChEMBL document CHEMBL3603761 (Bioorg Med Chem, 2015).
Calls of active or inactive are those of the source. No cut-off for these calls is given here.

How the values were obtained:
Autotaxin [1] = target: T1, Autotaxin (Homo sapiens, UniProt Q13822); assay: Inhibition of human ATX phosphodiesterase expressed in Sf9 cells assessed as hydrolysis of FS-3 at 10 uM measured after 5 to 25 mins by fluorescence assay
MeWo [2] = assay: Cytotoxicity against human MeWo cells assessed as reduction of cell viability after 48 hrs by CellTiter-Blue assay; assay type: functional
MeWo [3] = assay: Antitumor activity against human MeWo cells xenografted in athymic nude mouse at 30 mg/kg, ip administered every other day of 21 days post tumor cell injection; assay type: functional, organism-based
MeWo [4] = assay: Antitumor activity against human MeWo cells xenografted in athymic nude mouse assessed as reduction of ATX level in serum at 30 mg/kg, ip administered every other day of 21 days post tumor cell injection; assay type: functional, organism-based
Autotaxin [5] = target: T1, Autotaxin; assay: Inhibition of human ATX phosphodiesterase expressed in Sf9 cells assessed as hydrolysis of FS-3 measured after 5 to 25 mins by fluorescence assay
Autotaxin [6] = target: T1, Autotaxin; assay: Irreversible inhibition of human ATX phosphodiesterase activity expressed in Sf9 cells assessed as hydrolysis of FS-3 preincubated for 2 mins before substrate addition measured 1000 fold dilution by fluorescence assay
MeWo [7] = assay: Cytotoxicity against human MeWo cells after 48 hrs by CellTiter-Blue assay; assay type: functional, cell-based
HT-29 = assay: Cytotoxicity against human HT-29 cells after 48 hrs by CellTiter-Blue assay; assay type: functional, cell-based; conditions: HT-29, 48 h
MeWo [8] = assay: Inhibition of cell migration in human MeWo cells assessed as gap closure distance at 5 uM after 24 hrs by wound healing assay in presence of 1 uM of LPA; assay type: functional, cell-based
MeWo [9] = assay: Inhibition of cell migration in human MeWo cells assessed as gap closure distance at 5 uM after 24 hrs by wound healing assay; assay type: functional, cell-based
MeWo [10] = assay: Antitumor activity against human MeWo cells xenografted in athymic nude mouse assessed as reduction of ATX level in serum at 50 mg/kg, ip administered every other day of 21 days post tumor cell injection; assay type: functional, organism-based
MeWo [11] = assay: Antitumor activity against human MeWo cells xenografted in athymic nude mouse assessed as necrosis in tumor at 50 mg/kg, ip administered every other day of 21 days post tumor cell injection up to 48 days followed by administered 40 mg/kg, ip using hematoxylin and eosin staining; assay type: functional, organism-based
MDA-MB-231 [12] = assay: Inhibition of cell migration in human MDA-MB-231 cells assessed as gap closure distance at 5 uM after 24 hrs by wound healing assay in presence of 1 uM of LPA; assay type: functional, cell-based
SK-OV-3 [13] = assay: Cytotoxicity against human SKOV3 cells after 48 hrs by CellTiter-Blue assay; assay type: functional, cell-based; conditions: SK-OV-3, 48 h
Autotaxin [14] = target: T1, Autotaxin; assay: Inhibition of human ATX phosphodiesterase expressed in Sf9 cells assessed as hydrolysis of FS-3 preincubated for 2 mins before substrate addition measured after 5 to 25 mins by fluorescence assay
OVCAR-3 [15] = assay: Cytotoxicity against human OVCAR3 cells after 48 hrs by CellTiter-Blue assay; assay type: functional, cell-based; conditions: OVCAR-3, 48 h
SK-OV-3 [16] = assay: Inhibition of cell migration in human SKOV3 cells assessed as gap closure distance at 5 uM after 24 hrs by wound healing assay in presence of 1 uM of LPA; assay type: functional, cell-based
MeWo [17] = assay: Antitumor activity against human MeWo cells xenografted in athymic nude mouse assessed as necrotic endothelial cells at 50 mg/kg, ip administered every other day of 21 days post tumor cell injection up to 48 days followed by administered 40 mg/kg, ip using hematoxylin and eosin staining; assay type: functional, organism-based
MDA-MB-231 [18] = assay: Cytotoxicity against human MDA-MB-231 cells after 48 hrs by CellTiter-Blue assay; assay type: functional, cell-based; conditions: MDA-MB-231, 48 h
[19] = Cytotoxicity against human SB2 cells after 48 hrs by CellTiter-Blue assay; assay type: functional, cell-based; conditions: SB2, 48 h
OVCAR-3 [20] = assay: Inhibition of cell migration in human OVCAR3 cells assessed as gap closure distance at 5 uM after 24 hrs by wound healing assay; assay type: functional; conditions: OVCAR-3, 24 h
Mus musculus [21] = assay: Toxicity in human MeWo cells xenografted athymic nude mouse assessed as mortality at 50 mg/kg, ip administered every other day of 21 days post tumor cell injection measured on day 45; assay type: organism-based; conditions: in vivo, 504 h
OVCAR-3 [22] = assay: Inhibition of cell migration in human OVCAR3 cells assessed as gap closure distance at 5 uM after 24 hrs by wound healing assay in presence of 1 uM of LPA; assay type: functional, cell-based
MeWo [23] = assay: Antitumor activity against human MeWo cells xenografted in athymic nude mouse assessed as reduction of KC/CXCL-1 level in serum at 50 mg/kg, ip administered every other day of 21 days post tumor cell injection; assay type: functional, organism-based
Mus musculus [24] = assay: Toxicity in human MeWo cells xenografted athymic nude mouse assessed as mortality at 50 mg/kg, ip administered every other day of 21 days post tumor cell injection up to 48 days followed by administered 40 mg/kg, ip; assay type: organism-based; conditions: in vivo
Mus musculus [25] = assay: Toxicity in human MeWo cells xenografted athymic nude mouse assessed as severe dehydration at 50 mg/kg, ip administered every other day of 21 days post tumor cell injection measured on day 45; assay type: organism-based; conditions: in vivo, 504 h
SK-OV-3 [26] = assay: Inhibition of cell migration in human SKOV3 cells assessed as gap closure distance at 5 uM after 24 hrs by wound healing assay; assay type: functional, cell-based
MDA-MB-231 [27] = assay: Inhibition of cell migration in human MDA-MB-231 cells assessed as gap closure distance at 5 uM after 24 hrs by wound healing assay; assay type: functional; conditions: MDA-MB-231, 24 h
PC-3 = assay: Cytotoxicity against human PC3 cells after 48 hrs by CellTiter-Blue assay; assay type: functional, cell-based; conditions: PC-3, 48 h

C=C(CCCCCC)S(=O)(=O)CCC[N+](C)(C)C
inhibition (Autotaxin [1]): inactive

O=C1S/C(=C\c2ccc(OCc3cccc(B(O)O)c3)cc2)C(=O)N1Cc1ccc(F)cc1
Activity (MeWo [2]): <25% | Activity (MeWo [3]): inactive | Activity (MeWo [4]): inactive

C=C(CCCCCCCCCCCC)S(=O)(=O)CCC[N+](C)(C)C
Ki (Autotaxin [5]): 1790 nM

C=C(CCCCCCCCCCCCCCCC)S(=O)(=O)c1ccccc1
inhibition (Autotaxin [6]): inactive | inhibition (Autotaxin [1]): inactive

O=C(CCN1CCN(C(=O)OCc2cc(Cl)cc(Cl)c2)CC1)c1ccc2[nH]c(=O)oc2c1
Activity (MeWo [3]): inactive | Activity (MeWo [4]): inactive

C=C(CCCCCCCC/C=C\CCCCCCCC)S(=O)(=O)CCC[N+](C)(C)C
Ki (Autotaxin [5]): 2430 nM

C=C(CCCCCCCCCCCCCCCC)S(=O)(=O)CCC[N+](C)(C)C.[Cl-]
IC50 (MeWo [7]): 4080 nM | IC50 (HT-29): 2110 nM | inhibition (Autotaxin [6]): Active | inhibition (MeWo [8]): Active | inhibition (MeWo [9]): Active | Activity (MeWo [10]): Active | Activity (MeWo [11]): Active | inhibition (MDA-MB-231 [12]): Active | Activity (MeWo [2]): <25% | IC50 (SK-OV-3 [13]): 6740 nM | inhibition (Autotaxin [14]): inactive | IC50 (OVCAR-3 [15]): 4440 nM | inhibition (SK-OV-3 [16]): Active | Activity (MeWo [17]): Active | IC50 (MDA-MB-231 [18]): 390 nM | IC50 [19]: 4890 nM | inhibition at 5 µM (OVCAR-3 [20]): 75% | Activity (Mus musculus [21]): Toxic | inhibition (OVCAR-3 [22]): Active | Activity (MeWo [23]): Active | Activity (Mus musculus [24]): Non-toxic | Activity (Mus musculus [25]): Toxic | Ki (Autotaxin [5]): 3500 nM | inhibition (SK-OV-3 [26]): Active | inhibition at 5 µM (MDA-MB-231 [27]): 75% | IC50 (PC-3): 1930 nM
